According to paper PMC3652823 (PLoS ONE, 2013):
Read-outs that look alike come from different tables or passages of the source.

Assays:
[1] = rat, in vivo, po, cited from earlier work
in vivo = conditions: male, SD, rat, po
[2] = rat, in vivo, po; cited from earlier work
protein kinase C (PKCα) = target: protein kinase C (PKCα); design: method as in earlier work; conditions: read-out: IC50, inhibition of protein kinase C (PKCα); cited from earlier work
[3] = design: method as in Gao et al. (2008) [16]; conditions: in situ loop method in rats; ref Gao et al. (2008) [16]; cited from earlier work
[4] = system: influenza virus strain, A/PR8/34(H1N1); assay: Antiviral effect of serum after oral administration on influenza virus in MDCK cells (MTT); format: cell-based; conditions: COS 25 mg/kg, ribavirin 20 mg/kg, MTT after 48 h
[5] = rat, in vivo, po
Caco-2 cell monolayers = format: in vitro ADME, human
Description: Caco-2 cells were cultured in high glucose DMEM with 10% fetal bovine serum, 1% nonessential amino acids. Cells were cultured in a humidified atmosphere of 5% CO2 at 37°C. After reaching 80% confluens, Caco-2 cells were harvested with 0.05% trypsin-EDTA solution and seeded on top of CC inserts in 6-well plates, which has a surface area of 4.2 cm^2, at a density of 1.0×10^5 cells/cm^2. The protocols for cell culture in Transwell inserts were similar to those described previously.
Hank’s balanced salt solution (HBSS) was used as the transport buffer for the transport study in Caco-2 cell monolayer model. It was prepared by dissolving 9.5 grams of commercial available HBSS powder in 1000 mL water. The pH value of the buffer was adjusted to pH 6.0 by 85% of phosphoric acid.
Cell culture experiments were described previously. Briefly, after culture medium was aspirated, the cell monolayers were washed three times with blank HBSS. The transepithelial electrical resistance (TEER) values of cell monolayers were measured, which were more than […]. The monolayers were incubated with the blank HBSS for 1 h with 37°C. Thereafter the incubation medium was aspirated. […] The amounts of transported compound were measured as a function of time by UPLC-MS method described previously. […] At the end of the transport experiment, integrity of the monolayer was monitored by TEER value.

GI membrane = GI membrane toxicity by morphological observation; format: in vivo, rat; conditions: rats, oral, COS 25 mg/kg
Description: After in vivo pharmacokinetics experiments were carried out for 8 h, the GI was wash with HBSS (pH 7.4) and the segments were removed and immersed in the 4% neutral paraform aldehyde buffer and fixed. Vertical sections were prepared, stained with hematoxylin-eosin, and examined by light microscopy. To be able to describe possible changes in the structure of the tissue, tissues were studied and evaluated for morphological changes using the following parameters: Measurement of the distance between the nucleus and the apical membrane in enterocytes with a measuring-rod. Five measurements in each villus and five villi were measured in each slide. The villi were randomly chosen and measurements were all conducted at the tips of the villi. Villus index was used for duodenum, jejunum and ileum and crypt index for colon. Measurement of height (villi) or depth (crypt) and width (one-half of height or depth) was done with a measuring-rod of five villi/crypts in each slide that were randomly chosen. Height/depth was divided with width to receive the index.

Compound: O=C(/C=C/c1ccc(O)c(O)c1)O[C@@H]1C[C@](O)(C(=O)O)C[C@@H](O)[C@H]1O [CHA, Chlorogenic acid]
- T 1/2z ([1]; 60 mg/kg): 1.05 h
- AUC(0-t) (in vivo): 144 ng·h/mL
- T 1/2λz [2]: 3.63 h
- T max [2]: 0.75 h
- absolute bioavailability orally [2]: about 0.69%

Compound: C[C@@H]1O[C@@H](OC[C@H]2O[C@@H](OCCc3ccc(O)c(O)c3)[C@H](O)[C@@H](O)[C@@H]2OC(=O)/C=C/c2ccc(O)c(O)c2)[C@H](O)[C@H](O)[C@H]1O [FTA, forsythoside A]
- T 1/2λz ([1]; 100 mg/kg): 1.24 h
- IC50 (protein kinase C (PKCα)): 1.9 µM
- AUC(0-t) (in vivo): 28.5 ng·h/mL
- T 1/2λz [2]: 6.72 h
- T max [2]: 0.75 h
- absolute bioavailability orally [2]: ~0.72%

Compound: N[C@H]1[C@H](O[C@H]2[C@H](O)[C@@H](N)[C@H](O[C@H]3[C@H](O)[C@@H](N)[C@H](O[C@H]4[C@H](O)[C@@H](N)[C@H](O[C@H]5[C@H](O)[C@@H](N)[C@H](O[C@H]6[C@H](O)[C@@H](N)C(O)O[C@@H]6CO)O[C@@H]5CO)O[C@@H]4CO)O[C@@H]3CO)O[C@@H]2CO)O[C@H](CO)[C@@H](O)[C@@H]1O (some centres unmarked) [chitosan hexamer]
- increase of the bioavailability of insulin and FDs [3]: about 2.5 times

Compound: NC(=O)c1ncn([C@@H]2O[C@H](CO)[C@@H](O)[C@H]2O)n1 [ribavirin]
- inhibition rate on influenza virus compared with PBS group [4]: remarkable increase

Compound: Chito-oligosaccharide [COS]
- CHA AUC0-480 min ([5]; 12.5 mg/kg): 52938.0±3520.0 ng⋅min/mL
- FTA AUC0-480 min ([5]; 12.5 mg/kg): 2874.7±564.9 ng⋅min/mL
- CHA AUC0-480 min ([5]; 25 mg/kg): 296980.0±36456.0 ng⋅min/mL
- FTA AUC0-480 min ([5]; 25 mg/kg): 6286.0±1329.7 ng⋅min/mL
- CHA AUC0-480 min ([5]; 50 mg/kg): 152641.5±72581.0 ng⋅min/mL
- FTA AUC0-480 min ([5]; 50 mg/kg): 3143.0±572.1 ng⋅min/mL
- effect on the P app-value for FTA and CHA compared to the control group (Caco-2 cell monolayers): significant, concentration-dependent increase

Compound: Triton X-100
- Nucleo-apical distance (GI membrane; duodenum, jejunum and ileum, Triton X-100 200 mg/kg, vs PBS group): remarkable decrease
- villi/crypt index (GI membrane; duodenum, jejunum, ileum and colon, Triton X-100 200 mg/kg, vs PBS group): remarkable decrease
- morphology of the GI membrane (HE sections: stomach, jejunum, colon) (GI membrane; Triton X-100 200 mg/kg as positive control): could cause mucosal damage seriously
